The record followed here is paper doi:10.1101/704981v1 (biorxiv, 2019).

The test deals with EcThrRS (Escherichia coli, UniProt P0A8M3). As to the kind of experiment: tRNA aminoacylation assay, initial rates, dose-response fit. In kind it is biochemical.
EcThrRS, sequence (P0A8M3 whole entry): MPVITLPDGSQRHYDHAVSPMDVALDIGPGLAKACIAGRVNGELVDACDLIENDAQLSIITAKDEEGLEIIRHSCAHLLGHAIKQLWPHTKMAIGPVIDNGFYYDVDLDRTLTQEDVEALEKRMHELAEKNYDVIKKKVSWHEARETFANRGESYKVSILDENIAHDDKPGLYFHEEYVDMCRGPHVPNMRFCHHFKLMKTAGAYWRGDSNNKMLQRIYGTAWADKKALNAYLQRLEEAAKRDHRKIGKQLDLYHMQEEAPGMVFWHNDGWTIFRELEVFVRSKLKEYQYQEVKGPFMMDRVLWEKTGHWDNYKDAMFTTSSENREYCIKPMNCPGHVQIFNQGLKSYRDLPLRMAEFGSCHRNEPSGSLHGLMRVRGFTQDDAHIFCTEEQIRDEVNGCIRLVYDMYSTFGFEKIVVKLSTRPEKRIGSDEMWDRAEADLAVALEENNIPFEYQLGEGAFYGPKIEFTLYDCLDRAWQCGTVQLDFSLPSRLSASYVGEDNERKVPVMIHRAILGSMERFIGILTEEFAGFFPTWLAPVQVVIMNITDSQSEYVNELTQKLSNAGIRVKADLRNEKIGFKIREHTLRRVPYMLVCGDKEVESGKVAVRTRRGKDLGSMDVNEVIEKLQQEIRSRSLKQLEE

Molecule `O=C(N[C@@H]1C(=O)O[C@@H]1Cc1ccc([N+](=O)[O-])cc1)c1cccc(O)c1O` [compound 1, obafluorin] displayed a half-inhibitory concentration (IC50) of 92 ± 21 nM.

In general, IC50 refers to the concentration that gives 50% inhibition.
